The text below walks through data of PubChem BioAssay AID328 (DTP/NCI, 2004).

The test system of this assay is BDF1 mice, P388 leukemia ip, median survival T/C. As to the kind of experiment: NCI In Vivo Anticancer Drug Screen. Data for tumor model P388 Leukemia (intraperitoneal) in B6D2F1 (BDF1) mice. The settings on record: endpoint: median survival time, higher = longer survival. The procedure, abridged:
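Survival ratio, drug arm over vehicle arm, in mice with a transplanted tumour.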

Setting [1] is: dose: 100.0 mg/kg/injection, schedule: Q01DX009 (ip), vehicle: saline with Tween-80.
[2] abbreviates: dose: 200.0 mg/kg/injection, schedule: Q01DX009 (ip), vehicle: saline with Tween-80.
Setting [3] is: dose: 12.5 mg/kg/injection, schedule: Q01DX009 (ip), vehicle: saline.

Several values for one entry are separate records, joined by “and”; a condition that tells them apart may be missing. Equal values may be shown once. Inconclusive results and toxic doses are left out.

Regarding `O=NN(CCBr)C(=O)NC1CCCCC1`, the T/C by setting is: (dose: 1.5 mg/kg/injection, schedule: Q01DX009 (ip), vehicle: saline with Tween-80) 109 % of control; (dose: 3.0 mg/kg/injection, schedule: Q01DX009 (ip), vehicle: saline with Tween-80) 109 % of control; (dose: 6.0 mg/kg/injection, schedule: Q01DX009 (ip), vehicle: saline with Tween-80) 113 % of control; (dose: 100.0 mg/kg/injection, schedule: Q01DX009 (ip), vehicle: gum acacia) 103 % of control; under setting [1], 122 % of control; (dose: 100.0 mg/kg/injection, schedule: Q04DX003 (ip), vehicle: gum acacia) 113 % of control. Besides, the T/C (dose: 100.0 mg/kg/injection, schedule: Q04DX003 (ip), vehicle: saline with Tween-80) is 109 % of control; the T/C (dose: 133.0 mg/kg/injection, schedule: Q01DX009 (ip), vehicle: gum acacia) is 115 % of control; the T/C (dose: 150.0 mg/kg/injection, schedule: Q01DX009 (ip), vehicle: saline with Tween-80) was 95 % of control; the T/C under setting [2] was 118 % of control and 122 % of control; the T/C (dose: 200.0 mg/kg/injection, schedule: Q04DX003 (ip), vehicle: gum acacia) is 104 % of control; the T/C (dose: 200.0 mg/kg/injection, schedule: Q04DX003 (ip), vehicle: saline with Tween-80) is 109 % of control. In addition, the T/C is 100 % of control (dose: 300.0 mg/kg/injection, schedule: Q01DX009 (ip), vehicle: gum acacia); 103 % of control (dose: 400.0 mg/kg/injection, schedule: Q01DX009 (ip), vehicle: gum acacia); 91 % of control (dose: 400.0 mg/kg/injection, schedule: Q04DX003 (ip), vehicle: gum acacia).

On to `O=C(O)O.[Mn]`, for which the T/C by setting is: (dose: 100.0 mg/kg/injection, schedule: Q01DX010 (ip), vehicle: water) 86 % of control and 93 % of control; (dose: 200.0 mg/kg/injection, schedule: Q01DX010 (ip), vehicle: water) 91 % of control; (dose: 400.0 mg/kg/injection, schedule: Q01DX010 (ip), vehicle: water) 77 % of control; (dose: 800.0 mg/kg/injection, schedule: Q01DX010 (ip), vehicle: water) 83 % of control and 86 % of control.

With `C=C(C)c1cc2c(cc1O)OCC2C` (configuration not stated), the T/C is, setting by setting: (dose: 100.0 mg/kg/injection, schedule: Q04DX003 (ip), vehicle: Klucel (hydroxypropylcellulose) (HPC)) 92 % of control; (dose: 300.0 mg/kg/injection, schedule: Q01DX009 (ip), vehicle: Klucel (hydroxypropylcellulose) (HPC)) 90 % of control; (dose: 400.0 mg/kg/injection, schedule: Q04DX003 (ip), vehicle: Klucel (hydroxypropylcellulose) (HPC)) 92 % of control.

For the compound `C=CCN1C=CC(=C/C=C(\C#N)C(=O)OCC)C=C1`, the T/C was 99 % of control (dose: 50.0 mg/kg/injection, schedule: Q01DX009 (ip), vehicle: saline with Tween-80); 91 % of control under setting [1]; 99 % of control under setting [2].

As to `O=S(=O)(O)c1ccc(/C2=c3\cc/c([n-]3)=C(\c3ccc(S(=O)(=O)O)cc3)c3ccc([n-]3)/C(c3ccc(S(=O)(=O)O)cc3)=c3/cc/c([n-]3)=C(\c3ccc(S(=O)(=O)O)cc3)c3ccc2[n-]3)cc1.[Zn]`, where the note is “dose: 62.5 mg/kg/injection, schedule: Q01DX009 (ip), vehicle: saline with Tween-80”, the T/C was 106 % of control.

Take `COc1cccc(CC2=C3CCCN(C(=O)c4ccccc4)C3CCC2=O)c1` (configuration not stated): the T/C reads like this: (dose: 100.0 mg/kg/injection, schedule: Q01DX001 (ip), vehicle: saline sonified) 90 % of control; (dose: 200.0 mg/kg/injection, schedule: Q01DX001 (ip), vehicle: saline sonified) 90 % of control; (dose: 400.0 mg/kg/injection, schedule: Q01DX001 (ip), vehicle: saline sonified) 104 % of control.

In the case of `COC1=CC(=O)CC(C)C12Oc1c(Cl)c(OC)cc(OC)c1C2=O` (configuration not stated), the T/C by setting is: (dose: 100.0 mg/kg/injection, schedule: Q01DX009 (ip), vehicle: Klucel (hydroxypropylcellulose) (HPC)) 100 % of control; under setting [1], 100 % of control; (dose: 200.0 mg/kg/injection, schedule: Q01DX009 (ip), vehicle: Klucel (hydroxypropylcellulose) (HPC)) 109 % of control; under setting [2], 100 % of control; (dose: 400.0 mg/kg/injection, schedule: Q01DX009 (ip), vehicle: Klucel (hydroxypropylcellulose) (HPC)) 100 % of control; (dose: 400.0 mg/kg/injection, schedule: Q01DX009 (ip), vehicle: saline with Tween-80) 109 % of control.

As to `NC(=O)NCCCC(N)C(=O)O` (configuration not stated), the T/C is 94 % of control (dose: 50.0 mg/kg/injection, schedule: Q01DX010 (ip), vehicle: saline); 94 % of control (dose: 100.0 mg/kg/injection, schedule: Q01DX010 (ip), vehicle: saline); 89 % of control (dose: 200.0 mg/kg/injection, schedule: Q01DX010 (ip), vehicle: saline).

For the compound `OCC1CC=CCC1` (configuration not stated), the T/C by setting is: (dose: 100.0 mg/kg/injection, schedule: Q01DX009 (ip), vehicle: saline) 114 % of control; (dose: 200.0 mg/kg/injection, schedule: Q01DX009 (ip), vehicle: saline) 109 % of control; (dose: 400.0 mg/kg/injection, schedule: Q01DX009 (ip), vehicle: saline) 119 % of control.

As to `O/C(=C/C(=S)S)c1ccco1`, the T/C by setting is: (dose: 25.0 mg/kg/injection, schedule: Q01DX009 (ip), vehicle: water) 93 % of control; (dose: 25.0 mg/kg/injection, schedule: Q04DX003 (ip), vehicle: water) 94 % of control; (dose: 50.0 mg/kg/injection, schedule: Q01DX009 (ip), vehicle: water) 91 % of control; (dose: 50.0 mg/kg/injection, schedule: Q04DX003 (ip), vehicle: water) 93 % of control; (dose: 100.0 mg/kg/injection, schedule: Q01DX009 (ip), vehicle: water) 92 % of control; (dose: 200.0 mg/kg/injection, schedule: Q01DX009 (ip), vehicle: water) 102 % of control. In addition, the T/C is 93 % of control (dose: 200.0 mg/kg/injection, schedule: Q04DX003 (ip), vehicle: water); 93 % of control (dose: 400.0 mg/kg/injection, schedule: Q01DX009 (ip), vehicle: water); 97 % of control (dose: 400.0 mg/kg/injection, schedule: Q04DX003 (ip), vehicle: water).

Turning to `CC1OC(O[C@H]2/C=C/C=C/C=C/C=C/C=C/C=C/C=C/[C@H](C)[C@@H](O)[C@@H](C)[C@H](C)OC(=O)C[C@H](O)C[C@H](O)CC[C@@H](O)[C@H](O)C[C@H](O)C[C@]3(O)C[C@H](O)[C@@H](C(=O)O)[C@H](C2)O3)C(O)C(N)C1O` (some centres not stated), the T/C (dose: 20.0 mg/kg/injection, schedule: Q04DX003 (ip), vehicle: clinical formulation) was 109 % of control and the T/C (dose: 40.0 mg/kg/injection, schedule: Q04DX003 (ip), vehicle: clinical formulation) is 97 % of control.

`CC/C(=C\c1ccc(Cl)cc1)[N+](=O)[O-]`: the T/C under setting [3] is 97 % of control; the T/C (dose: 25.0 mg/kg/injection, schedule: Q01DX009 (ip), vehicle: saline) is 99 % of control; the T/C (dose: 25.0 mg/kg/injection, schedule: Q04DX003 (ip), vehicle: saline) is 87 % of control; the T/C (dose: 50.0 mg/kg/injection, schedule: Q01DX009 (ip), vehicle: saline) was 99 % of control; the T/C (dose: 50.0 mg/kg/injection, schedule: Q04DX003 (ip), vehicle: saline) was 104 % of control; the T/C (dose: 100.0 mg/kg/injection, schedule: Q04DX003 (ip), vehicle: saline) was 104 % of control and 109 % of control.

On to `C=C1C(=O)OC2/C=C(\C)C(=O)/C=C\C(C)(O)CC(OC(=O)C(C)C)C12` (configuration not stated), for which, for the setting “dose: 25.0 mg/kg/injection, schedule: Q01DX009 (ip), vehicle: saline + alcohol”, the T/C was 100 % of control.

In the case of `Cc1c(CNc2ccc(C(=O)NC(CC(=O)O)C(=O)O)cc2)ccc2nc(N)nc(N)c12` (configuration not stated), the T/C (dose: 6.25 mg/kg/injection, schedule: Q01DX009 (ip), vehicle: saline) is 100 % of control; the T/C under setting [3] was 90 % of control; the T/C (dose: 16.5 mg/kg/injection, schedule: Q04DX003 (ip), vehicle: saline with Tween-80) is 254 % of control; the T/C (dose: 25.0 mg/kg/injection, schedule: Q04DX003 (ip), vehicle: saline with Tween-80) is 272 % of control; the T/C (dose: 37.5 mg/kg/injection, schedule: Q04DX003 (ip), vehicle: saline with Tween-80) is 104 % of control.

Turning to `NC(=O)c1cc([N+](=O)[O-])ccc1N`, the T/C was 115 % of control (dose: 100.0 mg/kg/injection, schedule: Q04DX003 (ip), vehicle: saline sonified); 110 % of control (dose: 200.0 mg/kg/injection, schedule: Q04DX003 (ip), vehicle: saline sonified); 120 % of control (dose: 400.0 mg/kg/injection, schedule: Q04DX003 (ip), vehicle: saline sonified).
